In the NIST ThermoML archive (doi:10.1016/j.jct.2016.10.042):
Numbers after ± are expanded uncertainties.

Assay: xn = mol fraction of the nth substance listed
Conditions: 101 kPa, Liquid, Pycnometric method

C=CC(=O)OC [methyl propenoate] + C1CCOC1
mass density [kg/m3]
Conditions	293.15 K	298.15 K	303.15 K	308.15 K	313.15 K	318.15 K
x2 = 0	953.51 ± 1	947.56 ± 1	941.61 ± 1	935.66 ± 1	929.71 ± 1	923.76 ± 1
x2 = 0.0773	950.05 ± 1	944.24 ± 1	938.43 ± 1	932.62 ± 1	926.81 ± 1	921 ± 1
x2 = 0.1554	946.35 ± 1	940.67 ± 1	934.99 ± 1	929.31 ± 1	923.63 ± 1	917.95 ± 1
x2 = 0.2064	943.74 ± 1	938.15 ± 1	932.56 ± 1	926.97 ± 1	921.37 ± 1	915.77 ± 1
x2 = 0.2545	941.15 ± 1	935.63 ± 1	930.11 ± 1	924.58 ± 1	919.05 ± 1	913.52 ± 1
x2 = 0.3215	937.33 ± 1	931.89 ± 1	926.45 ± 1	921 ± 1	915.55 ± 1	910.1 ± 1
x2 = 0.3989	932.62 ± 1	927.26 ± 1	921.9 ± 1	916.54 ± 1	911.17 ± 1	905.8 ± 1
x2 = 0.4655	928.35 ± 1	923.06 ± 1	917.77 ± 1	912.47 ± 1	907.17 ± 1	901.87 ± 1
x2 = 0.53	924.03 ± 1	918.8 ± 1	913.57 ± 1	908.33 ± 1	903.09 ± 1	897.85 ± 1
x2 = 0.6023	918.98 ± 1	913.81 ± 1	908.64 ± 1	903.47 ± 1	898.3 ± 1	893.13 ± 1
x2 = 0.6834	913.02 ± 1	907.92 ± 1	902.82 ± 1	897.72 ± 1	892.62 ± 1	887.52 ± 1
x2 = 0.7632	906.87 ± 1	901.83 ± 1	896.79 ± 1	891.75 ± 1	886.7 ± 1	881.65 ± 1
x2 = 0.8468	900.16 ± 1	895.17 ± 1	890.18 ± 1	885.19 ± 1	880.19 ± 1	875.19 ± 1
x2 = 0.9316	893 ± 1	888.04 ± 1	883.08 ± 1	878.12 ± 1	873.16 ± 1	868.2 ± 1

C=CC(=O)OC(C)(C)C [tert-butyl acrylate] + C1CCOC1
mass density [kg/m3]
Conditions	293.15 K	298.15 K	303.15 K	308.15 K	313.15 K	318.15 K
x2 = 0	884.13 ± 1	879.66 ± 1	875.2 ± 1	870.74 ± 1	866.28 ± 1	861.82 ± 1
x2 = 0.0736	884.47 ± 1	880.01 ± 1	875.55 ± 1	871.08 ± 1	866.61 ± 1	862.14 ± 1
x2 = 0.1489	884.84 ± 1	880.36 ± 1	875.88 ± 1	871.4 ± 1	866.92 ± 1	862.44 ± 1
x2 = 0.2121	885.14 ± 1	880.65 ± 1	876.16 ± 1	871.67 ± 1	867.17 ± 1	862.67 ± 1
x2 = 0.2773	885.43 ± 1	880.92 ± 1	876.41 ± 1	871.9 ± 1	867.39 ± 1	862.88 ± 1
x2 = 0.362	885.78 ± 1	881.25 ± 1	876.71 ± 1	872.17 ± 1	867.63 ± 1	863.09 ± 1
x2 = 0.4382	886.06 ± 1	881.5 ± 1	876.94 ± 1	872.37 ± 1	867.8 ± 1	863.23 ± 1
x2 = 0.5024	886.28 ± 1	881.69 ± 1	877.1 ± 1	872.5 ± 1	867.9 ± 1	863.3 ± 1
x2 = 0.5815	886.5 ± 1	881.87 ± 1	877.24 ± 1	872.61 ± 1	867.98 ± 1	863.35 ± 1
x2 = 0.6532	886.66 ± 1	882 ± 1	877.34 ± 1	872.67 ± 1	868 ± 1	863.33 ± 1
x2 = 0.7268	886.79 ± 1	882.08 ± 1	877.37 ± 1	872.66 ± 1	867.95 ± 1	863.24 ± 1
x2 = 0.7921	886.88 ± 1	882.13 ± 1	877.38 ± 1	872.62 ± 1	867.86 ± 1	863.1 ± 1
x2 = 0.8698	886.97 ± 1	882.15 ± 1	877.33 ± 1	872.51 ± 1	867.69 ± 1	862.86 ± 1
x2 = 0.9352	887 ± 1	882.12 ± 1	877.24 ± 1	872.36 ± 1	867.48 ± 1	862.59 ± 1
